From ChEMBL document CHEMBL1201862, “PubChem BioAssay data set” (2004)
The source made the active and inactive calls.

Experiments:
[1] = target: Nuclear receptor subfamily 5 group A member 2 (Homo sapiens, UniProt O00482); assay type: functional, cell-based;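 also: HEK293T cells transfected with LRH-1 and a StAR promoter luciferase reporter; potency for inhibitors that lower LRH-1 driven reporter light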
Steroidogenic factor 1 = Steroidogenic factor 1 (Homo sapiens, UniProt Q13285); assay: Counterscreen for inverse agonists of the liver receptor homolog-1 (LRH-1; NR5A2): Luminescence-based cell-based high throughput dose response assay to identify inverse agonists of the Steroidogenic Factor 1 Nuclear Receptor (SF1; NR5A1).; assay type: functional
Chain of Steroidogenic factor 1 (Q13285 whole entry): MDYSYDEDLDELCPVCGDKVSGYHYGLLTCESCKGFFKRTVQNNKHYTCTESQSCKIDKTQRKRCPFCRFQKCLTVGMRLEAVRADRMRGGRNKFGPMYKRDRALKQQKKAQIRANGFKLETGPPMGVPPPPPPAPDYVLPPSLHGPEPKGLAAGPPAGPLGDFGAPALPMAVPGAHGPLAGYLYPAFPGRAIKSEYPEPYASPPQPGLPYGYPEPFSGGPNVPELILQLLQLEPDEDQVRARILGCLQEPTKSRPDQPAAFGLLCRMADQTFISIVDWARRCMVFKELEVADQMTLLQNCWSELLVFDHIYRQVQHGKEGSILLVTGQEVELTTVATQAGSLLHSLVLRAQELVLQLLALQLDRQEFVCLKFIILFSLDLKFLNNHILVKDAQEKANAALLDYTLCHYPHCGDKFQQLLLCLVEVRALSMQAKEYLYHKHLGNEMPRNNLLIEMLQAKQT

[2] = StAR promoter reporter inhibition counter-screen, dose response, counter-screen for LRH-1 inverse agonist project, cell-based, luminescence, luciferase reporter (AID 651969); assay type: functional
[3] = target: Photoreceptor-specific nuclear receptor (Homo sapiens, UniProt Q9Y5X4); assay type: functional, cell-based;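 also: CHO-S cells with Gal4-NCOR and VP16-NR2E3 two-hybrid luciferase reporter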
Chain of Photoreceptor-specific nuclear receptor (Q9Y5X4 whole entry, the tested form may be a part): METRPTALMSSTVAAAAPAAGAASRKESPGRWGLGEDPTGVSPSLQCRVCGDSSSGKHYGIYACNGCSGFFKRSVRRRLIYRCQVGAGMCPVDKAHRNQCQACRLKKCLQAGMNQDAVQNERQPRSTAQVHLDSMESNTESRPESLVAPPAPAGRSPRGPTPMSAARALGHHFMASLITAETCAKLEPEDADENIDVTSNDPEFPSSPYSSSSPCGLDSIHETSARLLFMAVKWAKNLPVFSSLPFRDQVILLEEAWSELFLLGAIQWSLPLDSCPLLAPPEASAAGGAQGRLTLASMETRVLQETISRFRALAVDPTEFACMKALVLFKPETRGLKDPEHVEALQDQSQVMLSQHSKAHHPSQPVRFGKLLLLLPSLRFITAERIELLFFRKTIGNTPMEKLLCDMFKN

[4] = HEp-2 cell cytotoxicity, dose response, cytotoxicity control for RSV inhibitor project, HTS (AID 2410); assay type: functional; conditions: human respiratory syncytial virus
[5] = target: T1, Methionyl-tRNA synthetase, putative (Trypanosoma brucei brucei, UniProt Q38C91); assay type: functional, Trypanosoma brucei brucei strain 927/4 GUTat10.1
T1 sequence (Q38C91 whole entry): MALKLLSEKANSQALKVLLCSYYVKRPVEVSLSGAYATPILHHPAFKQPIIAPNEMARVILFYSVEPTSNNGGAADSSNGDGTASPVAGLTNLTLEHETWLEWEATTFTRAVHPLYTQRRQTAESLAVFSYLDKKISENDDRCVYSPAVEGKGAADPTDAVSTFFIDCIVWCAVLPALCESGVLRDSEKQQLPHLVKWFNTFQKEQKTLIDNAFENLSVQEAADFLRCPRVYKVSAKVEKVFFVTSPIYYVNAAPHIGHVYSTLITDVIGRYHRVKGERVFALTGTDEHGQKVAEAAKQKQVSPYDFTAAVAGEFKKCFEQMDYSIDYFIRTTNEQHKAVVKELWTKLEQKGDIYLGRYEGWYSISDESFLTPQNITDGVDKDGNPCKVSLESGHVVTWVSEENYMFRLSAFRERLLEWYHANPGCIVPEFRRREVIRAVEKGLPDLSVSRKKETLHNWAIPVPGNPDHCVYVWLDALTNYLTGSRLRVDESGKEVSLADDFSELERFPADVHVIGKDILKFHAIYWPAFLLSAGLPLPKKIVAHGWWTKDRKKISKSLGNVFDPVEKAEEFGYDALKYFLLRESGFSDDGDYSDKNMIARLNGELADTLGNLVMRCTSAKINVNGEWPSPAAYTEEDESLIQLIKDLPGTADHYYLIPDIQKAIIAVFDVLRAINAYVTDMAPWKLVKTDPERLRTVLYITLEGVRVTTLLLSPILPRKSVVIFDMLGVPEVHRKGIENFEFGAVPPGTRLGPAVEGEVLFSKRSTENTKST

[6] = Counterscreen for inhibitors of Trypanosoma brucei methionyl tRNA synthetase (MetRS): Luminescence-based cell-based high throughput dose response assay to identify compounds that are cytotoxic to Jurkat human T lymphocyte cells.; assay type: functional
[7] = target: T1, Methionyl-tRNA synthetase, putative; assay type: functional, Trypanosoma brucei brucei strain 927/4 GUTat10.1; remark: listed apart in the source
[8] = target: T2, Corticotropin-releasing factor receptor 2/Corticotropin-releasing factor-binding protein (Homo sapiens, UniProt P24387+Q13324); assay: Dose Response confirmation of uHTS hits for small molecule antagonists of the CRF-binding protein and CRF-R2 receptor complex.; assay type: functional; conditions: read-out: IC50_Mean
T2 sequence (Q13324 whole entry): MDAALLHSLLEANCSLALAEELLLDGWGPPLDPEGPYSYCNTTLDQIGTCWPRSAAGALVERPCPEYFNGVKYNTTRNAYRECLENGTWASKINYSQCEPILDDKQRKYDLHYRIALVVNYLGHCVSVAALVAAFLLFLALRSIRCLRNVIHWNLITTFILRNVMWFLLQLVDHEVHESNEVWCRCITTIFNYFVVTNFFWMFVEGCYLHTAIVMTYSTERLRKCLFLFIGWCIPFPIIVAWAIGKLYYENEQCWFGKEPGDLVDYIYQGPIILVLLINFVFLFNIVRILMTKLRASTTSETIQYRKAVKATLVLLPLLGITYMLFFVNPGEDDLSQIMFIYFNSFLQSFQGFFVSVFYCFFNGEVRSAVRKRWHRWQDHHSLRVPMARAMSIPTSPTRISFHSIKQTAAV
T2 sequence (P24387 whole entry): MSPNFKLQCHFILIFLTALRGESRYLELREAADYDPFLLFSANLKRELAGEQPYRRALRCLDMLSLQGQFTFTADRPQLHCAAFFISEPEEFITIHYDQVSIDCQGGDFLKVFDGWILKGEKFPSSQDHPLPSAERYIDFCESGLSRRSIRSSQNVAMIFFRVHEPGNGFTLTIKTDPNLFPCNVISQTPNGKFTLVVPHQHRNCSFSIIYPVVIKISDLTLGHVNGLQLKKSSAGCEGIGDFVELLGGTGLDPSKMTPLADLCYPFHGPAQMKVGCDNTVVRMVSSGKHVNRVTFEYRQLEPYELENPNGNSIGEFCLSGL

[9] = target: T2, Corticotropin-releasing factor receptor 2/Corticotropin-releasing factor-binding protein; assay: activators of CRF receptor 2 with binding protein – uHTS hits, confirmation (AID 602473); assay type: functional; conditions: read-out: EC50_Mean
[10] = CRF-BP/CRF-R2 complex antagonists, dose response, cell-based, uHTS hits, 384-well (AID 651639); assay type: functional, Homo sapiens; conditions: read-out: IC50_Mean
[11] = target: T3, Rac GTPase-activating protein 1 (Homo sapiens, UniProt Q9H0H5); assay: MgcRacGAP GTPase-activating activity inhibitors, confirmation, biochemical, ADP Hunter fluorescence, primary and confirmatory (AID 624330); assay type: functional
T3 sequence (Q9H0H5 whole entry): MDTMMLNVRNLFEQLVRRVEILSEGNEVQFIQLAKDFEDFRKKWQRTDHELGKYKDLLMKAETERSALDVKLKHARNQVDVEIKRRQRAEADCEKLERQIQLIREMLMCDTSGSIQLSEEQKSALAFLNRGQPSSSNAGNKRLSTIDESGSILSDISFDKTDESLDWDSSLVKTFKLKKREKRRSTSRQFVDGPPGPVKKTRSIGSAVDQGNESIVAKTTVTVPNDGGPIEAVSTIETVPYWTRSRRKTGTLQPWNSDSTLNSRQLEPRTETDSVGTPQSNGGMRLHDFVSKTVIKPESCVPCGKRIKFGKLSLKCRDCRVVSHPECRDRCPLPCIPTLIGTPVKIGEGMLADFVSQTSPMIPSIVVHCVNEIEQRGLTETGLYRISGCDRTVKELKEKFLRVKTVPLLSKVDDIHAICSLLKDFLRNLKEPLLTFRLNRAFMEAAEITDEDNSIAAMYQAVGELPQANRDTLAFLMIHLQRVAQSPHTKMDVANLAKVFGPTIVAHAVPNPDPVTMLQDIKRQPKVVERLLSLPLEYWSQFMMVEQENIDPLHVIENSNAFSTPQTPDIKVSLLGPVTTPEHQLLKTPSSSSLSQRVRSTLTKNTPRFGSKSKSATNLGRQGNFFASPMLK

[12] = target: T4, Low molecular weight phosphotyrosine protein phosphatase (Homo sapiens, UniProt P24666); assay type: functional; conditions: read-out: IC50_Mean
T4 sequence (P24666 whole entry): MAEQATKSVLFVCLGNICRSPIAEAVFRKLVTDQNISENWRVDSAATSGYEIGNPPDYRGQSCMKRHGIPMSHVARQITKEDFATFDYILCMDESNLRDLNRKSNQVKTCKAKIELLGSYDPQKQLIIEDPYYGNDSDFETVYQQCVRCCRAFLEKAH

[13] = target: T4, Low molecular weight phosphotyrosine protein phosphatase; assay type: functional; conditions: read-out: IC50_Mean; remark: listed apart in the source
[14] = target: T5, Short transient receptor potential channel 4 (Mus musculus, UniProt Q9QUQ5); assay: mouse TRPC4 channel inhibitors, dose response, cell-based, HEK293 TRPC4/mu-opioid, Fluo-4 calcium (AID 434942); assay type: functional;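 also: potency of inhibitors blocking the TRPC4 calcium response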
T5 sequence (Q9QUQ5 whole entry): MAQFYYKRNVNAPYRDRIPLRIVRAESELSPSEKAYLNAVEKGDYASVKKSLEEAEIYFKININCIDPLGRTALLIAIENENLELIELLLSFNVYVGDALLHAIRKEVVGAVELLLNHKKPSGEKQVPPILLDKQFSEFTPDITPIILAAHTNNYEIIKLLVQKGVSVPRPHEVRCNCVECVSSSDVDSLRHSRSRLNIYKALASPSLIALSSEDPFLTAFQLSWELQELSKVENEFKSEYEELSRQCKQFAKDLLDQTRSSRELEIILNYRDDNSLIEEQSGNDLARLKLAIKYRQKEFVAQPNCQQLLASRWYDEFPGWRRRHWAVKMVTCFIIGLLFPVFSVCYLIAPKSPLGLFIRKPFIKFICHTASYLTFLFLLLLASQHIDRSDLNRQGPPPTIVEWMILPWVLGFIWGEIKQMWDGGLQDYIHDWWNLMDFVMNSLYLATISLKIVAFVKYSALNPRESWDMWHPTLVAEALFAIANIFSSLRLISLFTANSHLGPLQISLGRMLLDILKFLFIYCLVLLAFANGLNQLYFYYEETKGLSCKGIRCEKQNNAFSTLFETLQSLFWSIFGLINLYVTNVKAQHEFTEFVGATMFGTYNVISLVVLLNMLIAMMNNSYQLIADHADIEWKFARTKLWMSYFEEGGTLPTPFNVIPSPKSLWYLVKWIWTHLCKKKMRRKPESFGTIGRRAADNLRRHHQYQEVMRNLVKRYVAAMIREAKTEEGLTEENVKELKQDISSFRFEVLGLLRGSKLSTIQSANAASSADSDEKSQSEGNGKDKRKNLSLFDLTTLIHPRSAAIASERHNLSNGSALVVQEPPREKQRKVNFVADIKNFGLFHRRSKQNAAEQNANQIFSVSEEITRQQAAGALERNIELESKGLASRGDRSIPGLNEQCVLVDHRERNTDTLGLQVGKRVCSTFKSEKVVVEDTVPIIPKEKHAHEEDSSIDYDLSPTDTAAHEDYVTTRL

[15] = target: T6, Probable nicotinate-nucleotide adenylyltransferase (Staphylococcus aureus (strain N315), UniProt P65502); assay type: functional, Staphylococcus aureus subsp. aureus N315;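 as to IC50 Mean: confirmatory dose-response retesting of NadD inhibitor hits first found in an ultra-high-throughput screen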
T6 sequence (P65502 whole entry): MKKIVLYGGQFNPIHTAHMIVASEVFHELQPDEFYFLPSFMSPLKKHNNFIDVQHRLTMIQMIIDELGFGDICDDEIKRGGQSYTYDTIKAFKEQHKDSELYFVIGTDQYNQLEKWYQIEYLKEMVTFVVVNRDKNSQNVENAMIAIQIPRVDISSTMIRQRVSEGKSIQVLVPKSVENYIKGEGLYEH

[16] = target: T6, Probable nicotinate-nucleotide adenylyltransferase; assay type: functional, Staphylococcus aureus subsp. aureus N315; conditions: read-out: IC50_Mean
[17] = target: T7, ATP-dependent translocase ABCB1 (Homo sapiens, UniProt P08183); assay: ABCG2 efflux pump inhibitor potency, dose response, Ig-MXP3 cells, JC-1, flow cytometry, set 2 (AID 504566); assay type: functional; conditions: read-out: EC50_MICROM_;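 also: flow cytometry median green fluorescence of retained JC-1 dye; potency of efflux pump inhibition measured as rising substrate retention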
T7 sequence (P08183 whole entry): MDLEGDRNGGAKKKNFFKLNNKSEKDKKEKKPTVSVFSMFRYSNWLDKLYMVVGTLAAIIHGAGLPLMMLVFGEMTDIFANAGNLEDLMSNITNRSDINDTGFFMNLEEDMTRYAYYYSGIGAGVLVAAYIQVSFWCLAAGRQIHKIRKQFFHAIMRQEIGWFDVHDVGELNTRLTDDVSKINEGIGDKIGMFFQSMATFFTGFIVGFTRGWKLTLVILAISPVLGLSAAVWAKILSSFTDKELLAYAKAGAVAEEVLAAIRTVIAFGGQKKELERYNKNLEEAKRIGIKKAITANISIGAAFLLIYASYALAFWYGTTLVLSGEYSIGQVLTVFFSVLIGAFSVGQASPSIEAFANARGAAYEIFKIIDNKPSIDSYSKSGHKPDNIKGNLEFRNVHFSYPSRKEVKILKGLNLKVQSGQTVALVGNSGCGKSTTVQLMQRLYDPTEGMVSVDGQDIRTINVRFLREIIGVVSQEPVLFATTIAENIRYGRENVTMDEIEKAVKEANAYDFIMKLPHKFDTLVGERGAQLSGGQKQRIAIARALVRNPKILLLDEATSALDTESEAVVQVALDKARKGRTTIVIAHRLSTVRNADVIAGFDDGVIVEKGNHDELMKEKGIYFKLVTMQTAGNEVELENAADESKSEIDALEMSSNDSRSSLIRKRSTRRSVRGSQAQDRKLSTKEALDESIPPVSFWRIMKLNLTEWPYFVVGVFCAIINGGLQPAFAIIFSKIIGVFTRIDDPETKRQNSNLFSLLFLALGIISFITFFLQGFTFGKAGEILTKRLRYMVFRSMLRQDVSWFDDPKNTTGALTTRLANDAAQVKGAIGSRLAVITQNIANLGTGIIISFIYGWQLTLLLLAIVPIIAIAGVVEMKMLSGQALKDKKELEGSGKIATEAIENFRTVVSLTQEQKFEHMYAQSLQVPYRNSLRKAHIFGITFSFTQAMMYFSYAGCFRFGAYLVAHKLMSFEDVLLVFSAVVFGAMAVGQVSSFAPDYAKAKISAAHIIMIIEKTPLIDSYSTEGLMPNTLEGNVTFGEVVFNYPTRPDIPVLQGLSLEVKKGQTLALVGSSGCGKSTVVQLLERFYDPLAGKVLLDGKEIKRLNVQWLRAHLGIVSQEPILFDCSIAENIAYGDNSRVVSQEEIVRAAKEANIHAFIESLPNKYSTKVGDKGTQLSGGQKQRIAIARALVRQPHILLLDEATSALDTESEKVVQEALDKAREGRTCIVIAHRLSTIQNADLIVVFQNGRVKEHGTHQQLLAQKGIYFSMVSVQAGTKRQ

[18] = target: T7, ATP-dependent translocase ABCB1; assay: ABCB1 efflux inhibitor potency, dose response, Jurkat-DNR cells, JC-1, flow cytometry, set 2 (AID 504569); assay type: functional; conditions: read-out: EC50_MICROM_;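 also: potency of pump inhibitors that raise cellular JC-1 green fluorescence up to the nicardipine level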
[19] = target: Heat shock protein HSP 90-alpha (Homo sapiens, UniProt P07900); assay type: functional, organism-based

Chain of Nuclear receptor subfamily 5 group A member 2 (O00482 whole entry): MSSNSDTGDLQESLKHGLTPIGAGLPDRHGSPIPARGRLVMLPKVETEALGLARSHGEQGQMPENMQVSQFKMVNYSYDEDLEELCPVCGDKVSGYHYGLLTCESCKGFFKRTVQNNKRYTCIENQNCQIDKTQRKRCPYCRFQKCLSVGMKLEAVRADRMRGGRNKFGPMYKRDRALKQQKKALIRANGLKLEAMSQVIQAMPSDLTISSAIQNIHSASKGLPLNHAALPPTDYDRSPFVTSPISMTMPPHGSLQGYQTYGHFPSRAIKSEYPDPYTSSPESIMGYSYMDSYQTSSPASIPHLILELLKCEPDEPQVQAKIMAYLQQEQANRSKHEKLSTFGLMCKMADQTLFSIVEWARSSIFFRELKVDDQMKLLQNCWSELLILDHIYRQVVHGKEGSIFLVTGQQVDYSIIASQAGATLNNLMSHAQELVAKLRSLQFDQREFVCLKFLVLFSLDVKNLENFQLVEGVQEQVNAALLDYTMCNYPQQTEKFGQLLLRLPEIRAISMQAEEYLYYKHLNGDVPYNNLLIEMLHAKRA

Q: For `O=C(CSc1nncc(O)n1)Nc1cccc([N+](=O)[O-])c1`, which IC50 [1] is on record?
A: 3.98 µM (active)

Q: What about the IC50 (Steroidogenic factor 1) of the same molecule?
A: 3.98 µM (active)

Q: And the IC50 [2]?
A: 13.7 µM (inactive)

Q: Which IC50 [3] does the source give for `O=S(=O)(NC1CCCC1)c1ccc(S(=O)(=O)N2CCc3ccccc32)cc1` here?
A: 2.47 µM (active)

Q: Which CC50 [4] does the source give for `O=C(NCc1nc2ccccc2[nH]1)C1=C[C@H](c2csc3ccccc23)C[C@H](OCc2ccc(CO)cc2)O1` here?
A: 41.1 µM (active)

Q: What about the IC50 [5] of the same molecule?
A: 3.54 µM (active)

Q: And the IC50 [6]?
A: 47.7 µM (inactive)

Q: And the IC50 [7]?
A: 1.58 µM (active)

Q: Which results are given for `COc1ccc(C)cc1NCc1cccc(OC)c1OC`?
A: IC50 [8]: 39.6 µM (active); EC50 [9]: > 53 µM (inactive); IC50 [10]: > 20 µM (inactive); IC50 [11]: 41.7 µM (active)

Q: With `CCC(C)Nc1nc(-c2ccc3c(c2)NC(=O)CO3)cs1` (stereo not drawn) as the molecule, how does the IC50 [12] read?
A: 10.5 µM (active)

Q: And the IC50 [13]?
A: 63.3 µM (inactive)

Q: With `COc1ccc(/C=C2\SC(=S)N(C(Cc3ccccc3)C(=O)O)C2=O)cc1` (stereo not drawn) as the molecule, how does the EC50 [14] read?
A: 4.73 µM (active)

Q: What about the IC50 [8] of the same molecule?
A: 0.545 µM (active)

Q: And the EC50 [9]?
A: 34.8 µM (active)

Q: And the IC50 [10]?
A: > 20 µM (inactive)

Q: With `COC(=O)[C@H](CC(C)C)N1Cc2cc(OC)cc(OC)c2-c2ccccc2S1(=O)=O` as the molecule, how does the IC50 [15] read?
A: 23.5 µM (active)

Q: And the IC50 [16]?
A: 55.6 µM (active)

Q: What does the source list for `COc1ccc(C(=O)N2CCN(c3cc(-c4ccccc4)nc4cc(-c5cccc(Cl)c5)nn34)CC2)cc1`?
A: EC50 [17]: 2.04 µM (active); EC50 [18]: 3.04 µM (active)

Q: With `Cc1cccc(-c2nc(NCCCN3CCOCC3)c3ccccc3n2)c1` as the molecule, how does the IC50 [12] read?
A: 22.6 µM (inactive)

Q: What about the IC50 [13] of the same molecule?
A: 7.12 µM (active)

Q: Which IC50 [3] does the source give for `Cc1ccc(NC(=O)CNC(=O)c2cccc(C)c2)nc1` here?
A: 3.75 µM (active)

Q: For `Cc1ccc(-n2nc3c(c2NC(=O)/C=C\c2ccc4c(c2)OCO4)CSC3)cc1`, which IC50 [15] is on record?
A: 6.06 µM (active)

Q: What about the IC50 [16] of the same molecule?
A: 20.4 µM (active)

Q: What does the source list for `Cc1cc(N2CCN(C(=O)c3ccco3)CC2)n2nc(C)c(-c3ccccc3)c2n1`?
A: AC50 [19]: 7.93 µM (active); EC50 [17]: 7.22 µM (active); EC50 [18]: 3.25 µM (inactive)

Q: What does the source list for `CC(=O)Nc1ncc(Cc2cc(Cl)ccc2Cl)s1`?
A: IC50 [1]: 1.33 µM (active); IC50 (Steroidogenic factor 1): 2.14 µM (active); IC50 [2]: 35.9 µM (inactive)
